Laboratory results: the OligoGym collection
Only the 19 paired bases of each siRNA are shown; overhangs and chemistry are not given here.

Target: firefly luciferase
Assay: five studies, different assays
Conditions: siRNA
Further: test concentration or dose not given here.

Substance | target inhibition
sense AAAAAGAGAUCGUGGAUUA / antisense UAAUCCACGAUCUCUUUUU | 91.2%
sense AAAAAGUUGCGCGGAGGAG / antisense CUCCUCCGCGCAACUUUUU | 38.8%
sense AAAACAUAAAGAAAGGCCC / antisense GGGCCUUUCUUUAUGUUUU | 11.1%
sense AAAACUCGACGCAAGAAAA / antisense UUUUCUUGCGUCGAGUUUU | 94.6%
sense AAAAUCAGAGAGAUCCUCA / antisense UGAGGAUCUCUCUGAUUUU | 88.4%
sense AAAGACGAUGACGGAAAAA / antisense UUUUUCCGUCAUCGUCUUU | 73.9%
sense AAAGAGAUCGUGGAUUACG / antisense CGUAAUCCACGAUCUCUUU | 47.4%
sense AAAGGUCUUACCGGAAAAC / antisense GUUUUCCGGUAAGACCUUU | 71.1%
sense AAAGUUGCGCGGAGGAGUU / antisense AACUCCUCCGCGCAACUUU | 95.5%
sense AACAACCGCGAAAAAGUUG / antisense CAACUUUUUCGCGGUUGUU | -5.7%
sense AACAUAAAGAAAGGCCCGG / antisense CCGGGCCUUUCUUUAUGUU | 7.6%
sense AACUCGACGCAAGAAAAAU / antisense AUUUUUCUUGCGUCGAGUU | 90.2%
sense AACUUCCCGCCGCCGUUGU / antisense ACAACGGCGGCGGGAAGUU | 18.4%
sense AAGAAAAAUCAGAGAGAUC / antisense GAUCUCUCUGAUUUUUCUU | 68.1%
sense AAGGCCCGGCGCCAUUCUA / antisense UAGAAUGGCGCCGGGCCUU | 23%
sense AAGUAACAACCGCGAAAAA / antisense UUUUUCGCGGUUGUUACUU | 76.6%
sense AAGUACCGAAAGGUCUUAC / antisense GUAAGACCUUUCGGUACUU | 64.3%
sense AAUCAGAGAGAUCCUCAUA / antisense UAUGAGGAUCUCUCUGAUU | 91.7%
sense ACCGAAAGGUCUUACCGGA / antisense UCCGGUAAGACCUUUCGGU | 94.7%
sense ACCGCGAAAAAGUUGCGCG / antisense CGCGCAACUUUUUCGCGGU | 29.9%
sense ACGAUGACGGAAAAAGAGA / antisense UCUCUUUUUCCGUCAUCGU | 80.7%
sense ACGCAAGAAAAAUCAGAGA / antisense UCUCUGAUUUUUCUUGCGU | 87.6%
sense ACGCCAAAAACAUAAAGAA / antisense UUCUUUAUGUUUUUGGCGU | 94.9%

Substance | target inhibition
sense ACGGAAAAAGAGAUCGUGG / antisense CCACGAUCUCUUUUUCCGU | 58.8%
sense ACGGAAAGACGAUGACGGA / antisense UCCGUCAUCGUCUUUCCGU | 73.8%
sense ACGUCGCCAGUCAAGUAAC / antisense GUUACUUGACUGGCGACGU | 84.1%
sense ACGUGCAAAAAAAGCUCCC / antisense GGGAGCUUUUUUUGCACGU | 30%
sense AGACGAUGACGGAAAAAGA / antisense UCUUUUUCCGUCAUCGUCU | 93.1%
sense AGAGAGAUCCUCAUAAAGG / antisense CCUUUAUGAGGAUCUCUCU | 92.6%
sense AGAGAUCCUCAUAAAGGCC / antisense GGCCUUUAUGAGGAUCUCU | 38.7%
sense AGAGAUCGUGGAUUACGUC / antisense GACGUAAUCCACGAUCUCU | 82.8%
sense AGAUCCUCAUAAAGGCCAA / antisense UUGGCCUUUAUGAGGAUCU | 78.2%
sense AGAUCGUGGAUUACGUCGC / antisense GCGACGUAAUCCACGAUCU | 67%
sense AGGAGUUGUGUUUGUGGAC / antisense GUCCACAAACACAACUCCU | 87.5%
sense AGGUCUUACCGGAAAACUC / antisense GAGUUUUCCGGUAAGACCU | 90.1%
sense AGUCAAGUAACAACCGCGA / antisense UCGCGGUUGUUACUUGACU | 88.5%
sense AGUUGCAGUUGCGCCCGCG / antisense CGCGGGCGCAACUGCAACU | 37.3%
sense AGUUGCGCGGAGGAGUUGU / antisense ACAACUCCUCCGCGCAACU | 93.6%
sense AUCCGCUGGAAGAUGGAAC / antisense GUUCCAUCUUCCAGCGGAU | 23.4%
sense AUCCUCAUAAAGGCCAAGA / antisense UCUUGGCCUUUAUGAGGAU | -12.8%
sense AUCGUGGAUUACGUCGCCA / antisense UGGCGACGUAAUCCACGAU | 44.2%
sense AUGGAACCGCUGGAGAGCA / antisense UGCUCUCCAGCGGUUCCAU | 35.4%
sense AUUAUCAUGGAUUCUAAAA / antisense UUUUAGAAUCCAUGAUAAU | 55.5%
sense CAAAUACGAUUUAUCUAAU / antisense AUUAGAUAAAUCGUAUUUG | 87.8%
sense CAACCGCGAAAAAGUUGCG / antisense CGCAACUUUUUCGCGGUUG | -1.3%
sense CAUUCUAUCCGCUGGAAGA / antisense UCUUCCAGCGGAUAGAAUG | 93.2%

Substance | target inhibition
sense CCAAUCAUCCAAAAAAUUA / antisense UAAUUUUUUGGAUGAUUGG | 97.5%
sense CCAGUCAAGUAACAACCGC / antisense GCGGUUGUUACUUGACUGG | 66.1%
sense CCCGCCGCCGUUGUUGUUU / antisense AAACAACAACGGCGGCGGG | 42.3%
sense CCGCCGCCGUUGUUGUUUU / antisense AAAACAACAACGGCGGCGG | 60.8%
sense CCGCGAACGACAUUUAUAA / antisense UUAUAAAUGUCGUUCGCGG | 94.9%
sense CCGGAAAACUCGACGCAAG / antisense CUUGCGUCGAGUUUUCCGG | 94.9%
sense CCGGAUACUGCGAUUUUAA / antisense UUAAAAUCGCAGUAUCCGG | 96.3%
sense CCGGUUAUGUAAACAAUCC / antisense GGAUUGUUUACAUAACCGG | 41.6%
sense CCGUUGUUGUUUUGGAGCA / antisense UGCUCCAAAACAACAACGG | 89.3%
sense CCUCCCGGUUUUAAUGAAU / antisense AUUCAUUAAAACCGGGAGG | 73.5%
sense CCUUCAGGAUUACAAGAUU / antisense AAUCUUGUAAUCCUGAAGG | 98.9%
sense CGAAAAAGUUGCGCGGAGG / antisense CCUCCGCGCAACUUUUUCG | 78.6%
sense CGAAAGGUCUUACCGGAAA / antisense UUUCCGGUAAGACCUUUCG | 95%
sense CGAAGUACCGAAAGGUCUU / antisense AAGACCUUUCGGUACUUCG | 93.1%
sense CGACGCAAGAAAAAUCAGA / antisense UCUGAUUUUUCUUGCGUCG | 95.9%
sense CGCCAGUCAAGUAACAACC / antisense GGUUGUUACUUGACUGGCG | 79.5%
sense CGCCGCCGUUGUUGUUUUG / antisense CAAAACAACAACGGCGGCG | 51.3%
sense CGCCGUUGUUGUUUUGGAG / antisense CUCCAAAACAACAACGGCG | 74.8%
sense CGCGAAAAAGUUGCGCGGA / antisense UCCGCGCAACUUUUUCGCG | 32.1%
sense CGGCGCCAUUCUAUCCGCU / antisense AGCGGAUAGAAUGGCGCCG | 53.8%
sense CGUGGAUUACGUCGCCAGU / antisense ACUGGCGACGUAAUCCACG | 87.1%
sense CUCGACGCAAGAAAAAUCA / antisense UGAUUUUUCUUGCGUCGAG | 91%
sense CUUACCGGAAAACUCGACG / antisense CGUCGAGUUUUCCGGUAAG | 94.3%

Substance | target inhibition
sense CUUCCCGCCGCCGUUGUUG / antisense CAACAACGGCGGCGGGAAG | 47.2%
sense GAAAAAUCAGAGAGAUCCU / antisense AGGAUCUCUCUGAUUUUUC | 86.8%
sense GAAGUCUCUGAUUAAGUAC / antisense GUACUUAAUCAGAGACUUC | 34.7%
sense GACAAAUACGAUUUAUCUA / antisense UAGAUAAAUCGUAUUUGUC | 86.5%
sense GACGAAGUACCGAAAGGUC / antisense GACCUUUCGGUACUUCGUC | 89.7%
sense GACGCCAAAAACAUAAAGA / antisense UCUUUAUGUUUUUGGCGUC | 85.8%
sense GAGCACGGAAAGACGAUGA / antisense UCAUCGUCUUUCCGUGCUC | 20.3%
sense GAGUUGUGUUUGUGGACGA / antisense UCGUCCACAAACACAACUC | 95.3%
sense GAUAUGGGCUGAAUACAAA / antisense UUUGUAUUCAGCCCAUAUC | 91.9%
sense GAUGACGGAAAAAGAGAUC / antisense GAUCUCUUUUUCCGUCAUC | 47.6%
sense GAUGAUAAACCGGGCGCGG / antisense CCGCGCCCGGUUUAUCAUC | 52.9%
sense GAUUACGUCGCCAGUCAAG / antisense CUUGACUGGCGACGUAAUC | 96%
sense GAUUAUGUCCGGUUAUGUA / antisense UACAUAACCGGACAUAAUC | 96.8%
sense GAUUUCGAGUCGUCUUAAU / antisense AUUAAGACGACUCGAAAUC | 98.9%
sense GCAAGAAAAAUCAGAGAGA / antisense UCUCUCUGAUUUUUCUUGC | 95.1%
sense GCACGGAAAGACGAUGACG / antisense CGUCAUCGUCUUUCCGUGC | 39.2%
sense GCACUCUGAUUGACAAAUA / antisense UAUUUGUCAAUCAGAGUGC | 93%
sense GCAUGCCAGAGAUCCUAUU / antisense AAUAGGAUCUCUGGCAUGC | 94.5%
sense GCCGCCGUUGUUGUUUUGG / antisense CCAAAACAACAACGGCGGC | 13.8%
sense GCCUGAAGUCUCUGAUUAA / antisense UUAAUCAGAGACUUCAGGC | 95.6%
